Laboratory results from patent publication US20050159360A1, “Compositions for the transport of therapeutic molecules into the lungs and use thereof for the treatment of lung cancers and pulmonary diseases” (SYNT:EM, a corporation of France, priority 2002, published 2005).

Experiment: Pharmacokinetics/biodistribution of [14C]-tagged doxorubicin and vectorized doxorubicin in plasma and organs after intravenous injection in mice;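 also: radioactivity counted in plasma and organs of mice killed 1 to 60 min post-dose, converted to percentage of product per organ, five animals per time point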
Details: i.v., 1 mg/kg doxorubicin equivalent, 14C radioactivity
Experimental: About 0.6-1 microcurie was injected per animal. The doxorubicin was tagged with carbon 14 (specific activity 55 mCi/mmol). After the indicated time periods (1, 5, 15, 30, 60 minutes), the mice were sacrificed. The organs (lungs, liver, brain, kidneys, etc.) and the plasma were then collected and counted. The quantity of radioactivity in each organ was then expressed as quantity of product per gram of organ. In this study, five mice were used for each time period.
After injection of the doxorubicin or the vectorized doxorubicin, we compared the pharmacokinetics/biodistribution of the products in the plasma and the different organs. The quantity of each product was expressed as percentage of product per organ.

COc1cccc2c1C(=O)c1c(O)c3c(c(O)c1C2=O)C[C@@](O)(C(=O)CO)C[C@@H]3O[C@H]1C[C@H](N)[C@H](O)[C@H](C)O1 [compound 1, doxorubicin]
Percentage of product in Brain after intravenous injection (time 1 minute): 0.06%
Percentage of product in Heart after intravenous injection (time 1 minute): 0.58%
Percentage of product in Kidneys after intravenous injection (time 1 minute): 3.37%
Percentage of product in Liver after intravenous injection (time 1 minute): 17.81%
Percentage of product in Lungs after intravenous injection (time 1 minute): 1.30%
Percentage of product in Plasma after intravenous injection (time 1 minute): 1.84%
Percentage of product in Brain after intravenous injection (time 5 minutes): 0.03%
Percentage of product in Heart after intravenous injection (time 5 minutes): 0.52%
Percentage of product in Kidneys after intravenous injection (time 5 minutes): 5.58%
Percentage of product in Liver after intravenous injection (time 5 minutes): 23.02%
Percentage of product in Lungs after intravenous injection (time 5 minutes): 1.24%
Percentage of product in Plasma after intravenous injection (time 5 minutes): 0.53%
Percentage of product in Brain after intravenous injection (time 15 minutes): 0.03%
Percentage of product in Heart after intravenous injection (time 15 minutes): 0.54%
Percentage of product in Kidneys after intravenous injection (time 15 minutes): 5.24%
Percentage of product in Liver after intravenous injection (time 15 minutes): 20.22%
Percentage of product in Lungs after intravenous injection (time 15 minutes): 1.14%
Percentage of product in Plasma after intravenous injection (time 15 minutes): 0.34%
Percentage of product in Brain after intravenous injection (time 30 minutes): 0.02%
Percentage of product in Heart after intravenous injection (time 30 minutes): 0.45%
Percentage of product in Kidneys after intravenous injection (time 30 minutes): 4.48%
Percentage of product in Liver after intravenous injection (time 30 minutes): 19.70%
Percentage of product in Lungs after intravenous injection (time 30 minutes): 1.03%
Percentage of product in Plasma after intravenous injection (time 30 minutes): 0.19%
Percentage of product in Brain after intravenous injection (time 60 minutes): 0.02%
Percentage of product in Heart after intravenous injection (time 60 minutes): 0.36%
Percentage of product in Kidneys after intravenous injection (time 60 minutes): 2.43%
Percentage of product in Liver after intravenous injection (time 60 minutes): 17.80%
Percentage of product in Lungs after intravenous injection (time 60 minutes): 0.85%
Percentage of product in Plasma after intravenous injection (time 60 minutes): 0.18%
